pKd: −log10 of the molar value. Read-outs that look alike come from different tables or passages of the source. Where no end group is shown, it is not given here.
Experiments:
CREBBP = molecular target: T1, CREBBP (Homo sapiens, UniProt Q92793); assay: Isothermal titration calorimetry (ITC) of histone peptides; format: binding
T1 construct: His6 tag with TEV cleavage site (N, cleaved yes); made in house; host or cells: E. coli BL21(DE3)-R3

33 representative BRDs = assay: SPOT peptide array of singly acetylated histone peptides; format: binding, human; conditions: His6-tagged BRDs 1 μM; in words
Description: Peptides were synthesized on cellulose membranes using a MultiPep SPOT peptide arrayer (Intavis). His6-tagged BRDs were added to a final concentration of 1 μM, and blots were developed using an ECL kit (Thermo Scientific) following the manufacturer's protocol.
Three different types of SPOT membrane were utilized in order to probe preferences of BRD recognition sites: the first array contained peptides from all four core histones (H2A, H2B, H3 and H4) covering all possible lysine acetylation sites, with peptide sizes ranging from 10 to 14 amino acids. […]
Peptides for the first two arrays were synthesized directly on cellulose membranes (Intavis) using a MultiPep SPOT peptide arrayer (Intavis) and commercially available standard (Intavis) or modified (Bachem) L-amino acid precursors as previously described ([Nady et al., 2008]). The quality of the synthesized array was evaluated as follows: i) immune reactive peptides were identified by incubation of the membrane with an anti-His antibody in the absence of any His6-tagged BRD. […]
Each membrane was washed 3 times in PBST, blocked for 1 hr with 10% milk in PBST, and washed again 3 × 5 min with PBST. […] Chem-illuminescence was detected with an Image reader (Fujifilm LAS-4000 ver.2.0) with an incremental exposure time of 5 min for a total of 80 min. […]

T1 sequence (Q92793 with tags, fused parts or gaps): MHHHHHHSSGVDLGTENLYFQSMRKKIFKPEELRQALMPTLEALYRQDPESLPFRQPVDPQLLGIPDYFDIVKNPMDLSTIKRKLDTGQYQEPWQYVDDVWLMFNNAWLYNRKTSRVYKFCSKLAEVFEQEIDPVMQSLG

| Compound | interaction with BRDs in SPOT array of singly acetylated peptides (33 representative BRDs) | also measured |
| --- | --- | --- |
| CC(=O)NCCCC[C@H](NC(=O)CNC(=O)CNC(=O)[C@@H](NC(=O)[C@H](CO)NC(=O)[C@@H](N)CCCCN)[C@@H](C)O)C(=O)N[C@@H](C)C(=O)N1CCC[C@H]1C(=O)N[C@@H](CCCNC(=N)N)C(=O)N[C@@H](CCCCN)C(=O)N[C@@H](CCC(N)=O)C(=O)N[C@@H](Cc1ccc(O)cc1)C(=O)O [H3K14ac] |  | pKd (CREBBP): 3.13 |
| CC(=O)NCCCC[C@H](NC(=O)CNC(=O)CNC(=O)[C@@H](NC(=O)[C@H](COP(=O)(O)O)NC(=O)[C@@H](N)CCCCN)[C@@H](C)O)C(=O)N[C@@H](C)C(=O)N1CCC[C@H]1C(=O)N[C@@H](CCCNC(=N)N)C(=O)N[C@@H](CCCCNC(C)=O)C(=O)N[C@@H](CCC(N)=O)C(=O)N[C@@H](Cc1ccc(O)cc1)C(=O)O [H3pS10K14acK18ac] |  | pKd (CREBBP; ITC, 10 or 15°C, 50 mM HEPES pH 7.5, 150 mM NaCl, read-out: KD of CREBBP): 3.88 |
| H2AK36: promiscuous H2AK36-containing array peptide (LLRK(Ac)GNYSERVGA) | interacted with most BRDs |  |
| H2BK85: promiscuous H2BK85-containing array peptide (AHYNK(Ac)RSTITSRE) | interacted with most BRDs |  |

Source: PMC3326523, “Histone Recognition and Large-Scale Structural Analysis of the Human Bromodomain Family” (Cell, 2012)
